Patent US20120329721A1, “MEANS FOR PREVENTING AND TREATING CELLULAR DEATH AND THEIR BIOLOGICAL APPLICATIONS” (CHIESI FARMACEUTICI S.P.A., priority 2003, published 2012)
“Also recorded” adds a separate entry of the source. Like-named read-outs stand apart in the source and are kept apart here. Residues, ends and D or L forms follow the SMILES beside them. *: point of attachment. Cbz = O=C(OCc1ccccc1)*; d = 2'-deoxy (DNA); r = 2'-OH (RNA); CH2F = FC*

Key:
primary cortical neurons [1] = type: cell-based; details: for ΔΨm loss (drop) in SD-neurons / degradation phase of apoptosis: PS exposure, nuclear apoptosis (NA), PMP in SD-neurons / survival / protection of SD-neurons against cell death (apoptosis hallmarks overall): 24 hr-SD; for ΔΨm loss (drop) in SD-neurons: JC-1; for ΔΨm loss (drop) in SD-neurons / degradation phase of apoptosis: PS exposure, nuclear apoptosis (NA), PMP in SD-neurons: inhibitors 100 μM (BA 25 μM); for survival / protection of SD-neurons against cell death (apoptosis hallmarks overall): inhibitors 100 μM (BA 25 μM, furosemide 2 mM, siRNA 3.8 μg)
caspase-9 = experiment: In cellula caspase-9 like activity (FAM-LEHD-FMK FLICA) in SD-neurons; type: cell-based, mouse; details: 24 hr-SD, inhibitors 100 μM (BA 25 μM)
Experimental: Neurons were incubated with 1/150 of the DMSO stock solution of the FLICA for 1 hr at 37° C. 7-AAD and Hoechst were added during the last 15 min. Then neurons were washed three times in washing buffer (CaspaTag™ Kit). […] Cleaved caspase-3 was evidenced in cellula by immunodetection using Phycoerythrin (PE)-conjugated polyclonal antibodies (Beckton Dickinson). Neurons were stained by 7-AAD, trypsinized and fixed in PBS containing 1% PFA and 20 μg/ml Actinomycin D (AD) for 20 min. […] After washings in PBS, PE-related fluorescence was analysed on the cytometer (Fl-2 channel). Z-val-Ala-Asp(OMe)-FMK (Z-VAD-FMK), Quinoline-Val-Asp (OMe)-CH2-O-Ph (Q-VD-OPH), Z-DEVD-FMK ([…], ICN) and Z-LEHD-FMK ([…], all purchased from ICN (Orsay, France), and 4-(2-Aminoethyl)benzenesulfonyl fluoride (AEBSF, Pefabloc SC, Roche, Meylan, France) were added at 100 μM at the initiation of serum deprivation. Sulforhodamine-DEVD-FMK, (CaspaTag™ Red Activity Kit) permitted to detect activated caspase-3 and FITC-Annexin V. Neurons were incubated with 1/900 of the DMSO stock solution of the FLICA, and 1× FITC-annexin V in 200 μl of annexin-buffer for 30 min at 37° C. Then neurons were washed three times in a buffer composed of 50% washing buffer and 50% annexin-buffer. […] For FM, FLICA was excited through the BP515-560 filter and its fluorescence was collected through the LP590 long pass emission filter.
Neurons were loaded with 1 μM JC-1 for 30 min at 37° C. […] JC-1 monomers were detected in the Fl-1 channel by FC. […] Activated caspase-2, -3, -8 and -9 were detected using specific FAM-conjugated peptides (called Fluorochrome Labeled Inhibitor of Caspase, FLICA: CaspaTag™ fluorescein Caspase Activity Kits, Q-Biogen, Illkirch, France; ApoFluor™ Caspase Detection Kits, ICN, Orsay, France): FAM-VDVAD-FMK, FAM-DEVD-FMK, FAM-LETD-FMK and FAM-LEHD-FMK, respectively. Neurons were incubated with FLICAs (1:150, CaspaTag™ or 1:500, ApoFluor™) for 1 hr at 37° C., then washed three times in washing buffer. […] Phosphatidylserine (PS) exposure to the outer leaflet of the plasma membrane was detected through the fixation of FITC conjugated-annexin V (Immunotech).

cytochrome c = experiment: Immunodetection of cytochrome c release in SD-neurons; type: cell-based, mouse; details: 24 hr-SD, inhibitors 100 μM
Bax = Bax translocation to mitochondria in SD-neurons (Δ21 antibody immunostaining, subcellular fractionation); type: cell-based, mouse; details: 24 hr-SD, inhibitors 100 μM (furosemide 2 mM)
[2] = target: T1, human recombinant caspase-2 (Homo sapiens, UniProt P42575); experiment: In vitro VDVAD-AMC cleavage by recombinant caspase-2; type: biochemical; details: inhibitor 2 μM, 50 μM VDVAD-AMC, caspase-2 125 U, 30 min at 37° C.
T1 construct: purchased BIOMOL
T1 sequence (P42575 170-325 limits assumed): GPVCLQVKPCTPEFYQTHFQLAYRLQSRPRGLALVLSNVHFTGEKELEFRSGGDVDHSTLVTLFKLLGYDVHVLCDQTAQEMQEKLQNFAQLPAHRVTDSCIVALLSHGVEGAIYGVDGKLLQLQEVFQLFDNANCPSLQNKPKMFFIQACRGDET
T1 sequence (P42575 348-452 limits assumed): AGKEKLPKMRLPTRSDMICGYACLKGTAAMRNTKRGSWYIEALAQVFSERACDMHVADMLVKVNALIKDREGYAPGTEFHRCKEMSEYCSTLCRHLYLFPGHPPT
Experimental: Activity of human recombinant caspase-2 (BIOMOL QuantiZyme™ Assay System) was assessed in 100 μl assay buffer (50 mM HEPES, pH 7.4, 100 mM NaCl, 0.1% CHAPS, 10 mM DTT, 1 mM EDTA, 10% glycerol).

Jurkat cells [3] = experiment: VP16-induced cell death of Jurkat cells, cytoprotection assay; type: cell-based, human
caspase-2 [4] = experiment: Caspase-2 activation (FLICA) in VP16-treated Jurkat cells; type: cell-based, human; details: VP16 10 μM, 7 hrs; inhibitors 50 μM
Bax α = experiment: Bax cleavage (p22 to p18) in SD-neurons by Western blotting; type: cell-based, mouse; details: 24 hr-SD, Western Blotting Δ21 antibody; VDVAD/QVDOPH 100 μM, ALLN/ALLM 25 μM, E64d 25-50 μM, lactacystin 1-10 μM, epoxomycin 10 μM
Experimental: Neurons were lysed at RT in 25 mM Tris-HCl pH 7.4, 25 mM NaCl, 5 mM EDTA, 1% Triton X-100 supplemented by complete protease inhibitors cocktail (Roche). Protein concentration was determined using the Bio-Rad protein assay kit. Proteins (30 μg for caspase-2; 10 μg for Bax) were separated on 12.5% polyacrylamide gels and transferred to PVDF membranes (Amersham). […] The monoclonal anti-mouse caspase-2antibody (11B4, Alexis Biochemicals) was used at a 1:1000 dilution; polyclonal antibody (Δ21, Santa Cruz Biotechnology) raised against mouse Bax α deleted for the carboxy terminal 21 amino acids was used at a 1:200 dilution; polyclonal antibody (N20, Santa Cruz Biotechnology) raised against the amino terminus of Bax α (recognizing residues 11 to 30) was used at a 1:1000 dilution. Actin (42 kDa; Sigma; 1:5000) is used as an equal loading control. Immunoblotting of heat-shock protein 60 (HSP60) with a mouse monoclonal anti-HSP (Sigma; 1:400) was used to check the purity of the heavy membrane fraction enriched in mitochondria.

murine caspase-2 = experiment: Caspase-2 knock-down by siRNA in cortical neurons (RT-PCR, Western blotting, 10C6 immunostaining); type: cell-based, mouse; details: in situ antibody-based detection
caspase-2 [5] = experiment: In cellula caspase-2 like activity (FAM-VDVAD-FMK FLICA; Western blotting) in SD-neurons; type: cell-based, mouse
caspase-3 = experiment: In cellula caspase-3 like activity (FAM-DEVD-FMK FLICA or anti-cleaved caspase-3 antibody) in SD-neurons; type: cell-based, mouse; details: 24 hr-SD; inhibitors 100 μM (BA 25 μM)
primary cortical neurons [6] = experiment: Cortical neuron death induced by other stimuli (ionomycin, staurosporine, β-amyloid 25-35, MPTP, 3-NPA, SNP); type: cell-based, mouse; details: for protection against ionomycin-induced neuronal cell death: ionomycin 6 μM, 24 hrs
Jurkat cells [7] = details: model of Robertson et al., 2002; cited from earlier work
VDVAD-AMC = target: T2, VDVAD-AMC
T2 chain: VDVAD

[8] = VP16 10 μM, 7-8 hrs, inhibitors 50 μM

Question: For `COC(=O)CCC(NC(=O)C(CC(C)C)NC(=O)OCc1ccccc1)C(=O)NC(Cc1cnc[nH]1)C(=O)NC(CC(=O)OC)C(=O)CF` (stereo not shown) [Z-LEHD-FMK, N-benzyloxycarbonyl-Leu-Glu(Ome)-His-Asp(OMe)-fluoromethylketone] (Cbz-LE(OMe)HD(OMe)-CH2F; configuration not given here), which “ΔΨm loss (drop) in SD-neurons” value (primary cortical neurons [1]) is on record?
Answer: does not impair; also recorded: does not impaired ΔΨm drop

Question: And the “ΔΨm loss (drop) in SD-neurons” value (primary cortical neurons [1]; listed as LEHD)?
Answer: does not impair ΔΨm drop

Question: What about the “degradation phase of apoptosis: PS exposure, nuclear apoptosis (NA), PMP in SD-neurons” value (“degradation phase of apoptosis … in SD-neurons” for short) (primary cortical neurons [1]) of the same molecule?
Answer: delays and prevents apoptotic bodies formation but not stage I-condensation; also recorded: prevents

Question: What about the “degradation phase of apoptosis … in SD-neurons” value (primary cortical neurons [1]; listed as LEHD) of the same molecule?
Answer: preventing PS exposure, NA and PMP

Question: What about the “degradation phase of apoptosis … in SD-neurons” value (primary cortical neurons [1]; listed as z-LEHD-fmk) of the same molecule?
Answer: abolishes PS exposure and PMP

Question: What about the “caspase-9 like activity / activation in SD-neurons” value (caspase-9) of the same molecule?
Answer: prevents caspase-9 activation

Question: What about the “caspase-9 like activity / activation in SD-neurons” value (caspase-9; listed as z-LEHD-fmk) of the same molecule?
Answer: abolition of caspase-9 like activity

Question: And the “cytochrome c release from mitochondria in SD-neurons” value (cytochrome c)?
Answer: could not prevent cytochrome c release

Question: What about the “cytochrome c release from mitochondria in SD-neurons” value (cytochrome c; listed as LEHD) of the same molecule?
Answer: fail to impair cytochrome c release

Question: What about the “Bax translocation (relocation) to mitochondria in SD-neurons” value (Bax) of the same molecule?
Answer: does not prevent mitochondrial Bax relocation

Question: And the “Bax translocation (relocation) to mitochondria in SD-neurons” value (Bax; listed as LEHD)?
Answer: fail to impair Bax relocation

Question: What about the “inhibition of VDVAD-AMC cleavage by recombinant caspase-2” value [2] of the same molecule?
Answer: did not interfere highly; also recorded: not strongly inactivated

Question: And the “ΔΨm loss in VP16-treated Jurkat cells” value (Jurkat cells [3]; [8])?
Answer: not abolished

Question: What about the “caspase-2 activation in VP16-treated Jurkat cells” value (caspase-2 [4]) of the same molecule?
Answer: do not impair caspase-2 activation

Question: With “siRNA C2 m: irrelevant control siRNA with 4 mutations, duplex of SEQ ID No 3 and SEQ ID No 4 (chain 1 CAUCUACUCGAGACGGACATT; chain 2 UGUCCGUCUCGAGUAGAUGTT; sugars from the 5' end r19 d2, backbone not given here)” as the molecule, how does the “Bax cleavage (p18 Bax) in SD-neurons” value (Bax α) read?
Answer: has no effect

Question: And the “caspase-2 expression (gene silencing / knock-down)” value (murine caspase-2)?
Answer: prevents neither gene/protein expression

Question: What does the source list for `COC(=O)CC(NC(=O)C(C)NC(=O)C(NC(=O)C(CC(=O)OC)NC(=O)C(NC(=O)OCc1ccccc1)C(C)C)C(C)C)C(=O)CF` (stereo not drawn) [Z-VDVAD-FMK, N-benzyloxy-carbonyl-Val-Asp(Ome)-Val-Ala-Asp(OMe)-fluoromethylketone] (Cbz-VD(OMe)VAD(OMe)-CH2F; configuration not given here)?
Answer: survival / protection of SD-neurons against cell death (apoptosis hallmarks overall) (primary cortical neurons [1]): abolish loss of ΔΨm loss as well as others hallmarks of apoptosis; survival / protection of SD-neurons against cell death (apoptosis hallmarks overall) (primary cortical neurons [1]; listed as VDVAD): abolishes these hallmarks of apoptosis; concentration required for optimal survival / higher protective effect (primary cortical neurons [1]; dose-response, inhibitor added at the initiation of 24 hr-SD): 100 µM; caspase-2 like activity / activation in SD-neurons (caspase-2 [5]): abolished; also recorded: abolish caspase-2 activation; also recorded: impair both Bax translocation and caspase-2 activity; also recorded: blocks; decrease of procaspase-2 protein content (processing into p14 form) in SD-neurons (caspase-2 [5]; 24 hr-SD, 100 μM, Western Blotting 11B4): prevents it; caspase-3 like activity / activation in SD-neurons (caspase-3): inhibited; also recorded: prevent downstream cytochrome c release-dependent activation; caspase-9 like activity / activation in SD-neurons (caspase-9): inhibited; also recorded: prevent downstream cytochrome c release-dependent activation; cytochrome c release from mitochondria in SD-neurons (cytochrome c): efficiently blocked; cytochrome c release from mitochondria in SD-neurons (cytochrome c; listed as VDVAD): reduce post-mitochondrial cytochrome c release; Bax translocation (relocation) to mitochondria in SD-neurons (Bax): impair Bax translocation to mitochondria; also recorded: impair both Bax translocation and caspase-2 activity; Bax translocation (relocation) to mitochondria in SD-neurons (Bax; listed as VDVAD): prevented; also recorded: blocks; also recorded: prevents integration of p18 Bax into mitochondrial membrane; Bax cleavage (p18 Bax) in SD-neurons (Bax α): prevent Bax cleavage; cell death induced by staurosporine or ionomycin (primary cortical neurons [6]; cortical neurons): is not prevented; protection against ionomycin-induced neuronal cell death (primary cortical neurons [6]): provides no protective effect; also recorded: absence of protective effect; protection against ionomycin-induced neuronal cell death (primary cortical neurons [6]; listed as VDVAD): absence of protection; inhibition of VDVAD-AMC cleavage by recombinant caspase-2 [2]: blocked; cell death induced by VP16 (survival) (Jurkat cells [3]; Jurkat cells, VP16 7-8 hrs, inhibitors 25-100 μM pre-treatment, siRNA 24 hrs before): protective effect; also recorded: prevents cell death; terminal nuclear alterations and PMP in VP16-treated Jurkat cells (Jurkat cells [3]; [8]): mostly prevent; ΔΨm loss in VP16-treated Jurkat cells (Jurkat cells [3]; [8]): blocked ΔΨm loss; cytochrome c release and phosphatidylserine residues exposure in Jurkat T cells (Jurkat cells [7]): decreased partially

B1: human recombinant caspase-2 (BIOMOL QuantiZyme Assay System) (protein)
chain: GPVCLQVKPCTPEFYQTHFQLAYRLQSRPRGLALVLSNVHFTGEKELEFRSGGDVDHSTLVTLFKLLGYDVHVLCDQTAQEMQEKLQNFAQLPAHRVTDSCIVALLSHGVEGAIYGVDGKLLQLQEVFQLFDNANCPSLQNKPKMFFIQACRGDETDRGVDQQDGKNHAGSPGCEESDAGKEKLPKMRLPTRSDMICGYACLKGTAAMRNTKRGSWYIEALAQVFSERACDMHVADMLVKVNALIKDREGYAPGTEFHRCKEMSEYCSTLCRHLYLFPGHPPT
Question: For B1, which “cleavage of VDVAD-AMC (fluorescence emission at 510 nm upon excitation at 405 nm)” value (VDVAD-AMC) is on record?
Answer: The cleavage of 50 µM VDVAD-AMC by recombinant caspase-2 (125 U) was measured after 30 min at 37 °C
